The IC50 is the concentration that inhibits the measured activity by half. Higher therefore signals lower potency.

The target of this assay is T1, human Keap1 kelch domain (amino acids Ala321-Thr609) (Homo sapiens, UniProt Q14145).
T1 construct: human Keap1 kelch domain (amino acids Ala321-Thr609)
T1 sequence (Q14145 321-609): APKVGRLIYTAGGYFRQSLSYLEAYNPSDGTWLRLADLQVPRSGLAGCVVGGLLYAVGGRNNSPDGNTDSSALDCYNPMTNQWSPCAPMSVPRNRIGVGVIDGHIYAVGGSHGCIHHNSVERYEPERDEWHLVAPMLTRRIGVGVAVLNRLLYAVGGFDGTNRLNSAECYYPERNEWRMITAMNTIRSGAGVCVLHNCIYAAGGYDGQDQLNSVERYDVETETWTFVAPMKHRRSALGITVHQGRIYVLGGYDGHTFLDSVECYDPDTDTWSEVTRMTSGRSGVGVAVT
The assay is described as follows: Keap1-Nrf2 peptide binding assay (fluorescence polarisation). The following applies: binding of Keap1 kelch domain (20 nM) to fluorescently labeled Nrf2 peptide Alexa633-AFFAQLQLDEETGEFL (50 nM); ambient temperature. The procedure: Keap1-Nrf2 peptide binding assay
A fluorescence polarisation assay was used to measure binding of the human Keap1 kelch domain (amino acids Ala321-Thr609) to a fluorescently labeled peptide containing a Keap1 binding site of human Nrf2 (Alexa633-AFFAQLQLDEETGEFL; JPT Technologies, Berlin, Germany). Two microliters of test compound in reaction buffer (phosphate-buffered saline, 2 mM DL-dithiothreitol, 0.015 % (v/v) Brij-35) containing 6 % (v/v) DMSO were mixed with two microliters of the Keap1 kelch domain in reaction buffer in a black 384-well small volume microtiter plate and incubated at ambient temperature for 15 minutes. Thereafter, two microliters were added of the fluorescently labeled Nrf2 peptide in reaction buffer, and the mixture was incubated for a further 30 minutes at ambient temperature. Final concentrations of the Keap1 kelch domain and the fluorescently labeled Nrf2 peptide were 20 nM and 50 nM, respectively. Fluorescence polarization (FP) was measured at excitation and emission wavelengths of 635 nm and 660 nm, respectively. Positive controls for binding (two microliters of reaction buffer containing 6 % (v/v) DMSO instead of test compound in the same buffer) and negative controls (as positive controls, but without Keap1 kelch domain) were included on each microtiter plate. Data were expressed as percent-inhibition values: percent inhibition = 100⋅(1-(|FPcompound-FPnegative control|)/(|FPpositive control-FPnegative control|)) [formula]
IC50 values were determined by testing different compound concentrations and fitting the resulting percent-inhibition values to the following equation using XLFit4: percent inhibition = A + (B-A)/(1 + (((IC50)/([Compound])))^D) [formula]
Parameter A was set to zero, pre-fit values for parameters B and D were set to 100 and 1, respectively.
For the molecule `Cc1cc(C)c(C)c(S(=O)(=O)Nc2ccc(C(CC(=O)O)c3ccccc3)c3ccccc23)c1C` (stereo not shown) [Example 13, 3-phenyl-3-[4-[(2,3,5,6-tetramethylphenyl)sulfonylamino]-1-naphthyl]propanoic acid], the IC50 worked out at 6.5 µM.
As for `Cc1cc(C)c(C)c(S(=O)(=O)Nc2cc(C(CC(=O)O)c3ccccc3)cc3ccccc23)c1C` (stereo not shown) [Example 4, 3-phenyl-3-[4-[(2,3,5,6-tetramethylphenyl)sulfonylamino]-2-naphthyl]propanoic acid], the IC50 worked out at 14.4 µM.
Consider `Cc1cc(C)c(C)c(S(=O)(=O)Nc2cc(CC(C(=O)O)C(F)(F)F)cc3ccccc23)c1C` (stereo not shown) [Example 10, 3,3,3-trifluoro-2-[[4-[(2,3,5,6-tetramethylphenyl)sulfonylamino]-2-naphthyl]methyl]propanoi c acid], for which the IC50 turned out to be 15.7 µM.
In the case of `Cc1cc(C)c(C)c(S(=O)(=O)Nc2cc(C3CCCC3C(=O)O)cc3ccccc23)c1C` (stereo not shown) [Example 3, 2-[4-[(2,3,5,6-tetramethylphenyl)sulfonylamino]-2-naphthyl]cyclopentaneca rboxylic acid], the IC50 came to 5.2 µM.
Under `CCCCCC(CC(=O)O)c1cc(NS(=O)(=O)c2c(C)c(C)cc(C)c2C)c2ccccc2c1` (stereo not shown) [Example 1, 3-[4-[(2,3,5,6-tetramethylphenyl)sulfonylamino]-2-naphthyl]octanoic acid] stands 13 µM; under `Cc1cc(C)c(C)c(S(=O)(=O)Nc2cc(N3CCCC(C(=O)O)C3)cc3ccccc23)c1C` (stereo not shown) [Example 12, 1-[4-[(2,3,5,6-tetramethylphenyl)sulfonylamino]-2-naphthyl]piperidine-3-carboxylic acid; 2,2,2-trifluoroacetic acid], 8.6 µM; under “1-[4-[(5-chloro-1,3-dimethyl-pyrazol-4-yl)sulfonylamino]-2-naphthyl]piperidine-3-carboxylic acid; 2,2,2-trifluoroacetic acid [Example 11]”, 26.7 µM.
Take `CCCCCC(Oc1cc(NS(=O)(=O)c2c(C)c(C)cc(C)c2C)c2ccccc2c1)C(=O)O` (stereo not shown) [Example 5, 2-[[4-[(2,3,5,6-tetramethylphenyl)sulfonylamino]-2-naphthyl]oxy]heptanoic acid]: the IC50 was found to be 3.3 µM.
Under `Cc1cc(C)c(C)c(S(=O)(=O)Nc2cc(C3=CCC(C(=O)O)CC3)cc3ccccc23)c1C` (stereo not shown) [Example 9, 4-[4-[(2,3,5,6-tetramethylphenyl)sulfonylamino]-2-naphthyl]cyclohex-3-ene-1-carboxylic acid] stands 2.9 µM.
`Cc1cc(C)c(C)c(S(=O)(=O)Nc2ccc(CC(C(=O)O)c3cccc(C(F)(F)F)c3)c3ccccc23)c1C` (stereo not shown) [Example 14, 3-[4-[(2,3,5,6-tetra-methylphenyl)sulfonylamino]-1-naphthyl]-2-[3-(trifluoromethyl)phenyl]pr opanoic acid] came in with an IC50 of 4 µM.

The record behind these values is patent EP2998292A1, “Naphthyl sulfonamide derivatives as KEAP-1 modulators for the treatment of diabetes, obesity, dyslipidemia and related disorders” (SANOFI, priority 2014, dated 2016).
